Tests used:
[1] = test system: AMLN-diet induced NASH mice; format: in vivo
Protocol: This example provides the results obtained from a second in vivo mouse model of fatty liver disease treatment to investigate the therapeutic effect of DA on the treatment of NASH versus positive control semaglutide (a GLP-1 agonist marketed drug for lowering HbA1c). The differences in this study, from the preventive model in Example 1, were that a higher dose of DA (75 mg/kg) was used versus 30 mg/kg, dosing was twice daily (BID versus QD in the Example 1 study), a positive control semaglutide was used, a different mouse strain (B6 mice) was used, and the animals were already adults (23 weeks old in Example 2 versus 4 weeks old in Example 1) when the study began because the animals were already fed an AMLN diet for 17 weeks prior to the study being initiated. The study dose began at 75 mg/kg BID.
The study included 3 groups of 10 mice each, (A) vehicle control with distilled water by gavage BID, (B) DA by gavage BID, and (C) semaglutide […] sc QD. Body weights and changes were measured 3× per week. Serum metabolic markers (blood glucose, blood insulin, HbA1c, HDL, LDL triglycerides and bile acids) were measured at beginning of dosing (baseline) and end of study. At the end of the study, histopathology of liver samples and serum levels of inflammatory biomarkers (IL-6, TNFα, CK-18 and TGF-β) were evaluated. Histopathology was performed blindly with a scoring scale according to NAFLD Activity Score and Fibrosis Score according to Table 4.

[2] = test system: AMLN diet-induced NASH mice; assay: Example 1: one-year DA dosing of AMLN diet-induced NASH mice (prevention study); format: in vivo
Protocol: This example provides the results of a 52 week study of lower dose DA (30 mg/kg per day QD by gavage) in mice where NASH conditions were induced by diet. The data for an animal-induced NASH of such a long duration (48-52 weeks) can be interpreted to support methods for preventing fatty liver diseases, including NASH, and methods of slowing progression of fatty liver diseases, including NASH. Male C57BL/6 mice (4 weeks old at study start) were maintained on a high-fat “Western diet” (AMLN diet) (DIO-NASH) (D09100301, Research Diet, USA) (40% fat (18% trans-fat), 40% carbohydrates (20% fructose) and 2% cholesterol, 40 kcal % fat, 20 kcal % fructose, and 2% cholesterol) following arrival, inducing non-alcoholic steatohepatitis (NASH). Following acclimation, Groups 1 and 2 (n=22 each) were dosed by intragastric oral gavage (PO) with (respectively) vehicle (distilled water) or denatonium acetate (DA) at 30 mg/kg. Doses were administered once daily (QD) for a full year (through Day 366) at dose volumes of 1 mL/kg. Body weights and clinical observations were monitored throughout the study. Blood was collected from fasted animals at baseline (Day −1) and regularly during the study (Weeks 4, 12, 24, and 48), processed to serum or plasma, and evaluated for metabolic parameters [glucose, insulin, hemoglobin A1c (HbA1c), and glucagon-like peptides 1 and 2 (GLP-1 and -2)], selected serum chemistry parameters [Ala aminotransferase (ALT), Asp aminotransferase (AST), albumin (ALB), and total bile acids (BA)], and multiple cytokines (32 total). After 52 weeks of QD dosing, fasted animals were bled and euthanized, and livers were collected and weighed. Terminal serum samples were assessed for low- and high-density cholesterol (LDL and HDL, respectively) and triglycerides (TGA); liver was assessed for total cholesterol (TC), TGA, and free fatty acids (FFA).
Male C57BL/6 mice (n=44) were purchased from Taconic Biosciences, Inc. (Rensselaer, NY), as 4-week-old animals. Following arrival, animals were weighed using an electronic balance (Ohaus SCOUT® PRO, Parsippany, NJ), given a clinical examination to ensure that the mice were in good condition, and group-housed (up to 4 per cage). The animals were maintained in HEPA-filtered static cages using SaniChip bedding 7090A (Harlan Teklad, Hayward, CA). Animal room controls were set to maintain temperature and relative humidity at 22° C.±4° C. and 50% 20%, respectively. Housing rooms were on a 12:12 light/dark cycle. Animals were acclimated on site for at least 3 days prior to entry onto the study. Following arrival and throughout the study, mice were provided with ad libitum access to water (via water bottles) and (except as noted for fasting) to a high-fat “Western diet” (AMLN diet, No. D09100301; Research Diets, New Brunswick, NJ) containing 40 kcal % fat, 20 kcal % fructose, and 2% cholesterol.
DA was formulated at 30 mg/mL in DW. Solid DA was weighed and added to the appropriate volume of DW; the solution was mixed well and inspected visually to ensure that there was no precipitate and to verify that the test article was completely solubilized. The DA dosing solution was prepared freshly each week and stored refrigerated at 4° C. between use in daily dose administrations. On Day −1 (i.e., one day before the start of dosing); and on Weeks 4, 12, 24, and 48 (i.e., after one, 3, 6, and 12 months of dosing), blood and fecal samples were collected from fasted animals. • Fecal samples (4 pellets per cage of 3-4 mice) were collected directly collected from the floor of each cage, divided into two aliquots, and stored at −80° C. for future microbiota and microbiome analysis. Results of those analyses are not included in this report. • Blood (100 μL/animal) was collected from each animal via the submandibular route. All blood samples were assessed for blood glucose levels and then processed to both serum and plasma. […]

[3] = 23.1 mg/kg BID DA; cited from earlier work
[4] = DA 75 then 50 mg/kg BID, 12 weeks
[5] = 30 mg/kg PO QD, one year (48 weeks in Table 2), blinded histopathologic review
[6] = 30 mg/kg PO QD, only at Week 24
[7] = after one year of QD dosing, 30 mg/kg
[8] = after one year of daily dosing, 30 mg/kg

CC(=O)[O-].CC[N+](CC)(CC(=O)Nc1c(C)cccc1C)Cc1ccccc1 [DA, denatonium acetate]
body weight [1, 4]: remarkable effect
body weight change [1, 4]: remarkable effect
liver weight vs vehicle [1, 4]: significantly decreased
liver/body weight ratio vs vehicle [1, 4]: significantly decreased
NAFLD Activity Score ([1]; blinded histopathologic review, DA 75 then 50 mg/kg BID, 12 weeks): significantly improved
ALT levels vs vehicle control ([1]; end of the study): significantly decreased
AST levels vs vehicle control ([1]; end of the study): significantly decreased
CK-18 levels vs vehicle control ([1]; end of the study): significantly decreased
high density lipoproteins (HDL) ([1]; end of the study): significantly decreased
low density lipoproteins (LDL) ([1]; end of the study): significantly decreased
triglycerides (TG) ([1]; end of the study): significantly decreased
levels of the other (n=24) assessed cytokines vs vehicle ([2]; 30 mg/kg PO QD): Significant treatment-related differences were not seen
animals found dead during the study ([2]; 30 mg/kg PO QD, n=22, Weeks 12 and 49, unclear if test article related): two
fibrosis on histopathology [2, 5]: improved/abrogated
steatosis on histopathology [2, 5]: significantly improved
total fibrosis score ([2]; 30 mg/kg PO QD, one year, 1.52 vs. 0.58, p<0.0001): 0.58
relative body weights vs vehicle ([2]; 30 mg/kg PO QD, Day 4): lower
IP-10 blood level vs vehicle ([2]; 30 mg/kg PO QD, Week 4 only): Statistically significant attenuation
MIP-1B blood level vs vehicle ([2]; 30 mg/kg PO QD, Week 4 only): Statistically significant attenuation
IL-13 blood level vs vehicle ([2]; 30 mg/kg PO QD, Week 12 only): Statistically significant attenuation
MIP-1a blood level vs vehicle ([2]; 30 mg/kg PO QD, Week 24 only): Statistically significant attenuation
Serum BA levels vs vehicle ([2]; 30 mg/kg PO QD, Week 24 only): significantly attenuated
fasting blood glucose levels vs vehicle ([2]; 30 mg/kg PO QD, Week 24 only): significantly lower
GLP-2 levels vs vehicle ([2]; 30 mg/kg PO QD, Week 48): did not differ significantly
IL-6 blood level vs vehicle ([2]; 30 mg/kg PO QD, Week 48 only): Statistically significant attenuation
IL-9 blood level vs vehicle ([2]; 30 mg/kg PO QD, Week 48 only): Statistically significant attenuation
KC blood level vs vehicle ([2]; 30 mg/kg PO QD, Week 48 only): Statistically significant attenuation
insulin levels vs vehicle ([2]; 30 mg/kg PO QD, Weeks 4 and 12, not subsequently): significantly elevated
MIG blood level vs vehicle ([2]; 30 mg/kg PO QD, Weeks 4 and 48 only): Statistically significant attenuation
HbA1c levels vs vehicle ([2]; 30 mg/kg PO QD, Weeks 12 and 48, not Week 24): significantly attenuated
Serum ALT activity levels vs vehicle ([2]; 30 mg/kg PO QD, Weeks 24 and 48, not earlier): significantly attenuated
Serum ALB levels vs vehicle ([2]; 30 mg/kg PO QD, any assessed time point): did not differ significantly
body weight increase from baseline ([2]; 30 mg/kg PO QD, during the first 5 months (both groups)): ~150%
body weights (absolute or relative) vs vehicle ([2]; 30 mg/kg PO QD, during the study except Day 4 relative): did not differ in a statistically significant manner
body weights mean increase from baseline ([2]; 30 mg/kg PO QD, during the year-long study (both groups)): approximately 200%
GLP-1 levels vs vehicle [2, 6]: significantly attenuated
Serum AST activity levels vs vehicle [2, 6]: significantly attenuated
Lowered serum levels of ALT ([2]; 30 mg/kg, PO, QD for 48 weeks): ALT (−43%),
Lowered serum levels of AST ([2]; 30 mg/kg, PO, QD for 48 weeks): AST (−9.5%),
Lowered serum levels of HbA1c ([2]; 30 mg/kg, PO, QD for 48 weeks): HbA1c (−6.7%),
Lowered serum levels of bile acid ([2]; 30 mg/kg, PO, QD for 48 weeks): acid (−16.2%)
Lowered serum levels of fasting glucose ([2]; 30 mg/kg, PO, QD for 48 weeks): glucose (−9%),
decreased liver weight of animals ([2]; 30 mg/kg, PO, QD for 48 weeks): (by 10%)
serum levels of GLP-1 (Table 2 summary) ([2]; 30 mg/kg, PO, QD for 48 weeks): Increased
serum levels of GLP-2 (Table 2 summary) ([2]; 30 mg/kg, PO, QD for 48 weeks): Increased
serum levels of inflammatory markers ([2]; 30 mg/kg, PO, QD for 48 weeks): Lowered serum
absolute liver weight at necropsy vs vehicle [2, 7]: not absolute liver weight was attenuated
relative (body weight-normalized) liver weight at necropsy vs vehicle [2, 7]: attenuated
Liver TGA levels vs vehicle [2, 8]: significantly attenuated
Serum TGA levels vs vehicle [2, 8]: significantly attenuated
liver FFA levels vs vehicle [2, 8]: not those of TC or FFA, were significantly attenuated
liver TC levels vs vehicle [2, 8]: not those of TC or FFA, were significantly attenuated
serum HDL levels vs vehicle [2, 8]: not those of HDL or LDL, were significantly attenuated
serum LDL levels vs vehicle [2, 8]: not those of HDL or LDL, were significantly attenuated
adverse effects on survival, body weight, or clinical signs ([2]; mouse, in vivo, po, 30 mg/kg): did not appear to have adverse effects
weight gain [3]: significant reduction

Reference: patent US20240100001A1, “DENATONIUM SALT FOR USE IN PREVENTING, PREVENTING PROGRESSION AND TREATING FATTY LIVER DISEASES” (AARDVARK THERAPEUTICS INC., priority 2021, published 2024)
